For data set [1], the species on record is Homo sapiens. The data set is described as follows: Selectivity ratio of Ki for human carbonic anhydrase 9 to Ki for human carbonic anhydrase 2.
For data set [2], the species on record is Homo sapiens. The data set is described as follows: Selectivity ratio of Ki for human carbonic anhydrase 12 to Ki for human carbonic anhydrase 9.
Data set [3] can be described thus: Chemical stability of the compound in presence of 10% FBS or human blood. The format is physicochemical.
Data set [4] is described as follows: Critical aggregation concentration of compound by dynamic light scattering. The format is physicochemical.
Data set [5] in a line: Chemical stability of the compound in pH 7.4 phosphate buffer assessed as drug decomposition in serum-free medium measured within 30 mins. The format is physicochemical.
A short description of data set [6]: Partition coefficient, log P of the compound. Type of data set: physicochemical. The conditions noted are these: octanol/water.
The test system of the next data set is HeLa. The data set is described as follows: Antiproliferative activity against human HeLa cells. The format is functional, cell-based.
For the next data set, the system named is Mus musculus. Description: Antiinflammatory activity in C57BL/6 mouse assessed as reduction in LPS-induced inflammatory mortality by measuring mouse survival rate at 10 mg/kg, iv preincubated for 15 mins followed by LPS stimulation and measured at 24 hrs interval for 7 days relative to control. Type of data set: functional.
Another data set has as its target T1, Tyrosinase (Agaricus bisporus, UniProt O42713).
T1 sequence (O42713 whole entry): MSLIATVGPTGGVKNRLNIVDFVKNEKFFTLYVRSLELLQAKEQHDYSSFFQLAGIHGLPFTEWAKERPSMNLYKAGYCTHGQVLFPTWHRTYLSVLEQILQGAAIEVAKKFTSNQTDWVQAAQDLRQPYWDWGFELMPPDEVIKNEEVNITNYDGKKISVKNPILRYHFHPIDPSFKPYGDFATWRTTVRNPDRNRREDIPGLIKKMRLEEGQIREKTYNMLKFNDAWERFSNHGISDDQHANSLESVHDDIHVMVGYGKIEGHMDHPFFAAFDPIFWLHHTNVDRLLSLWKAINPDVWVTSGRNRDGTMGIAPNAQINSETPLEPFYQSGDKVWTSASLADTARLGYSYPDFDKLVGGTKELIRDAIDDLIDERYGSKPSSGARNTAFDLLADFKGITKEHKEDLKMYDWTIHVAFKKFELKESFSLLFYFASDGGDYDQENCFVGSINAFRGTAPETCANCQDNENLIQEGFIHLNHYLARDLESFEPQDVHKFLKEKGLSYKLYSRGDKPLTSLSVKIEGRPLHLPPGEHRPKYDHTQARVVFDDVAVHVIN
The data set is described as follows: Inhibition of mushroom tyrosinase preincubated for 10 mins followed by L-DOPA addition and measured for 1 mins by spectrophotometric assay.

A value given as a limit tells only on which side of the number the result lay.

In the case of `COc1ccc(OC)c(/C=C/C(=O)/C=C/c2ccc(S(N)(=O)=O)cc2)c1`, the Ratio Ki in the data set filed under Homo sapiens [1] and in the data set listed under Homo sapiens [2] was 9 in each case.
Turning to `COc1cc(/C=C/C(=O)CC(=O)/C=C/c2ccc(O)c(OC)c2)ccc1O` [CURCUMIN], the Stability in data set [3] is < 50%. This molecule also showed a CAC in data set [4] of 17 µM. In data set [5], the Drug degradation was < 90%. The lipophilicity (logP) (usually a log measure of how a compound divides between an organic and an aqueous phase) in data set [6] was 2.3 to 2.6.
`COc1ccc(/C=C/C(=O)/C=C/c2ccc(OCCN3CCCCC3)c(OC)c2)cc1OC`: 700 nM corresponded to half-maximal inhibition with HeLa (IC50).
In the case of `O=C(/C=C/c1ccccc1O)/C=C/c1ccccc1Br`, the Activity with Mus musculus came to 60%.
With `O=C1/C(=C/c2ccc(O)cc2)CC/C1=C\c1ccc(O)cc1O`, at Tyrosinase, the IC50 (in general, the concentration at which inhibition is half-maximal) was 1740 nM.
`COc1ccc(/C=C/C(=O)/C=C/c2ccc(S(N)(=O)=O)cc2)cc1OC`: the Ratio Ki came out at 3 in the data set filed under Homo sapiens [1] and 70 in the data set listed under Homo sapiens [2].

These data come from ChEMBL document CHEMBL4402533 (Eur J Med Chem, 2019).
